Source: US5750553A, “Optionally substituted phenylimidazolidines, their preparation process and intermediates, their use as medicaments and the pharmaceutical compositions containing them” (Roussel Uclaf, priority 1994, dated 1998)

Key:
[1] = molecular target: T1, androgen receptor (Rattus norvegicus, UniProt P15207); assay: Study of the affinity of the products of the invention for the androgen receptor (displacement of tritiated testosterone, rat prostate cytosol); format: binding, Male Sprague Dawley EOPS rats; settings: Incubation: 24 hours, 0° C., RBA=100 (CH)/(CX), testosterone = 100
T1 construct: the prostates are removed, weighed and homogenized at 0° C; from tissue; host or cells: prostate cytosol (209,000 g supernatant) of castrated male Sprague Dawley rats
T1 sequence (P15207 1-902): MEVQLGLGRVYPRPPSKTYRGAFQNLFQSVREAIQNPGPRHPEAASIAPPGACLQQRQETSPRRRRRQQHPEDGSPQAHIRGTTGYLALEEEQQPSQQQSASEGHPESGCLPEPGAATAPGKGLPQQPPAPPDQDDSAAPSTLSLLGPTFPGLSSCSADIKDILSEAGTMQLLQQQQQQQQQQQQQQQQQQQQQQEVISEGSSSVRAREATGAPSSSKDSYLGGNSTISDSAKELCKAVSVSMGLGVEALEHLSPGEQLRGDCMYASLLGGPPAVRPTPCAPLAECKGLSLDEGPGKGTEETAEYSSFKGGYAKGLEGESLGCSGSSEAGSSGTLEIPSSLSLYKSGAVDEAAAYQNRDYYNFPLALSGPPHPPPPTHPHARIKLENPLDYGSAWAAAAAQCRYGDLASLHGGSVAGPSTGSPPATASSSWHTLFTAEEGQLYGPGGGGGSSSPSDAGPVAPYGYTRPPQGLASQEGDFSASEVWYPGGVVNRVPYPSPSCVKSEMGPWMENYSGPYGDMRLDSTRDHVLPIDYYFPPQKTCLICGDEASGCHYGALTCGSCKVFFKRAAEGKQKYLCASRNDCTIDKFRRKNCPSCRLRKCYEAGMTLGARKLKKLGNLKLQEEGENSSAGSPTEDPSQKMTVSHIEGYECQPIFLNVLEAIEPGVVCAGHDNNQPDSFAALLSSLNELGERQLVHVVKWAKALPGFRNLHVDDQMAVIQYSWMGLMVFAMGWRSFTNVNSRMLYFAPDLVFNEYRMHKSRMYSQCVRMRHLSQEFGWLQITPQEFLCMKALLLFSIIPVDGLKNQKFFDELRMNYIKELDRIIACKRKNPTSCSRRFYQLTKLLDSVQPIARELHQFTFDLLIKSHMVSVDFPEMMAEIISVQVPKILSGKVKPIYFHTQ
Procedure: 1) Study of the affinity of the products of the invention for the androgen receptor
Male Sprague Dawley EOPS rats weighing 180-200 g, castrated 24 hours previously, are sacrificed, the prostates are removed, weighed and homogenized at 0° C. using a Potter glass, in a buffered solution (10 mM Tris, 0.25M saccharose, 0.1 mM PMSF (phenylmethanesulphonylfluoride), 20 mM sodium molybdate, HCl pH 7.4) to which is added extemporaneously 2 mM of DTT (DL dithiothreitol), at the rate of 1 g of tissue per 8 ml of buffer.
The homogenate is then ultracentrifuged at 0° C., for 30 minutes at 209,000 g. […] Calculation of the relative bond affinity (RBA).
The following 2 curves are drawn: the percentage of the bound tritiated hormone B/T as a function of the logarithm of the concentration of the unlabelled reference hormone and B/T as a function of the logarithm of the concentration of the unlabelled product tested. The straight line of the equation I50 =(B/Tmax+B/Tmin)/2 is determined. B/Tmax=% of the bound tritiated hormone for an incubation of this tritiated hormone at the concentration (T). B/Tmin=% of the bound tritiated hormone for an incubation of this tritiated hormone at the concentration (T) in the presence of a large excess of unlabelled hormone (2500.10^-9 M).
The intersections of the straight line I50 and the curves enable the concentrations of the unlabelled reference hormone (CH) and of the unlabelled tested product (CX) which inhibit by 50% the binding of the tritiated hormone on the receptor to be evaluated.

[2] = system: renal ornithine decarboxylase (ODC); assay: Determination of the androgen or anti-androgen activity using dosage of ornithine decarboxylase (ODC) in castrated mice receiving testosterone propionate; format: in vivo, male SWISS mice; settings: percutaneous route, 1.5 mg/kg in 10 μl; testosterone propionate 3 mg/kg sub-cutaneous; kidneys 20 hours after treatment
Procedure: 2) Determination of the androgen or anti-androgen activity of the products of the invention using dosage of ornithine decarboxylase (ODC).
20 hours after the treatments, the animals are sacrificed, the kidneys are removed, then homogenized at 0° C., using a teflon glass grinder in 10 volumes of Tris-HCl 50 mM (pH 7.4) buffer containing 250 μM of pyridoxal phosphate, 0.1 mM EDTA, and 5 mM of dithiothreitol. The homogenate is then centrifuged at 209,000 g for 30 minutes.
At 37° C., renal ornithine decarboxylase converts an isotopic mixture of unlabelled ornithine and tritiated ornithine into unlabelled putrescine and tritiated putrescine.
The putrescine is then collected on selective ion-exchange papers. After drying, the excess unconverted tritiated and unlabelled ornithine is eliminated by washing 3 times with 0.1M of ammonium hydroxide. The papers are dried, then the radioactivity is counted after addition of scintillating Aqualite.
The results are expressed as fmoles (10^-15 M) of tritiated putrescine formed/hour/mg of proteins.
Test: the products are administered by percutaneous route at 1.5 mg/kg in a volume of 10 μl.

## N#Cc1ccc(N2C(=O)NC(CO)(CO)C2=O)cc1C(F)(F)F [Example 26, 4-(4,4-bis(hydroxymethyl)-2,5-dioxo-1-imidazolidinyl)-2-(trifluoromethyl)-benzonitrile]
[1]
  relative bond affinity (RBA): 4

## CC1(CO)C(=O)N(c2ccc(C#N)c(C(F)(F)F)c2)C(=O)N1CCF (centres unmarked) [Example 3, 4-(2,5-dioxo 3-(2-fluoroethyl) 4-(hydroxymethyl) 4-methyl 1-imidazolidinyl)2-(trifluoromethyl) benzonitrile]
[1]
  relative bond affinity (RBA): 6
[2]
  % of inhibition of the ODC of the controls receiving only testosterone propionate: 47%

## CN1C(=O)N(c2ccc(C#N)c(C(F)(F)F)c2)C(=O)C1(C)CF (centres unmarked) [Example 6]
[1]
  relative bond affinity (RBA): 16
[2]
  % of inhibition of the ODC of the controls receiving only testosterone propionate: 84%
